Source: paper PMC11099021, “Mycobacterial biotin synthases require an auxiliary protein to convert dethiobiotin into biotin” (Nature Communications, 2024)

Experiments:
[1] = target: T1, BioB.ec (Escherichia coli, UniProt P12996); assay: biotin formation by LC-MS; type: biochemical; conditions: 100 µM DTB, 100 µM SAM; FldA/FNR/NADPH, MtnN; pH 8.0; 37 °C; anaerobic; without BsaP
T1 sequence (P12996 1-346): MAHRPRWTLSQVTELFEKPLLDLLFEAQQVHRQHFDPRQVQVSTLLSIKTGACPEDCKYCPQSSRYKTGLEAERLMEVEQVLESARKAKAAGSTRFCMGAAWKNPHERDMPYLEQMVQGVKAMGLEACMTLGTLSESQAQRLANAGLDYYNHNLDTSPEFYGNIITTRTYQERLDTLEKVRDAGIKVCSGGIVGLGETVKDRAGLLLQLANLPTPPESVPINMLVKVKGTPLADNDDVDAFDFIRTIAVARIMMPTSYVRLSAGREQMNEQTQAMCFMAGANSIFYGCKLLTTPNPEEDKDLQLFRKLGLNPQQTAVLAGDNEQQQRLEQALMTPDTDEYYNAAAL

[2] = target: BioB.tb-BsaP (Mycobacterium tuberculosis, UniProt P9WPQ7); assay: biotin formation by LC-MS, Morrison fit; type: biochemical
Description: biotin formation by LC-MS, Morrison fit on BioB.tb-BsaP | acidomycin is indeed a potent inhibitor of BioB.tb displaying an inhibition constant Ki of […]

[3] = target: T2, BsaP (Mycobacterium tuberculosis, UniProt P9WLT6)
T2 chain: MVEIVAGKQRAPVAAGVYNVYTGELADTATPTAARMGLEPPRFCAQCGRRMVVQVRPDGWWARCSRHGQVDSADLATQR

In the case of `C[C@@H]1NC(=O)N[C@@H]1CCCCCC(=O)O` [DTB], the “biotin formation by LC-MS” value [1] is reported as “No difference in biotin production was observed when BsaP was added to BioB.ec”.

For `O=C(O)CCCCC[C@@H]1NC(=O)CS1` [acidomycin], the Ki [2] was 110 nM.

B1: BioB (protein)
chain: TQAATRPTNDAGQDGGNNSDILVVARQQVLQRGEGLNQDQVLAVLQLPDDRLEELLALAHEVRMRWCGPEVEVEGIISLKTGGCPEDCHFCSQSGLFASPVRSAWLDIPSLVEAAKQTAKSGATEFCIVAAVRGPDERLMAQVAAGIEAIRNEVEINIACSLGMLTAEQVDQLAARGVHRYNHNLETARSFFANVVTTHTWEERWQTLSMVRDAGMEVCCGGILGMGETLQQRAEFAAELAELGPDEVPLNFLNPRPGTPFADLEVMPVGDALKAVAAFRLALPRTMLRFAGGREITLGDLGAKRGILGGINAVIVGNYLTTLGRPAEADLELLDELQMPLKALNASL
For B1, the Kd [3] was 950 nM.
